The text below walks through data of patent US9642870B2, “Composition for preventing or alleviating atopic dermatitis comprising immunosuppressant and transglutaminase 2 inhibitor” (Dongguk University Industry-Academic Cooperation Foundation, priority 2011, dated 2017).

The conditions of series [1]: in vivo.
Series [2] relates to severe atopic dermatitis patients. The series is described as follows: Clinical test: objective SCORAD index in atopic dermatitis patients. The following applies: FIG. 17.
Procedure: During the experiments, the vital signs, that is, a blood pressure and a pulse, were measured after patients sat for 3 minutes to rest.
Thereafter, the SCORAD indexes were measured. […] The SCORAD indexes were measured before dosage and at points of time at which the dosage methods were changed. It was assumed that an area of lesions was set to 0 to 100% according to the rule of nine, the SCORAD index was calculated as the sum (0-103) of an objective SCORAD index and a subjective SCORAD index. Here, the objective SCORAD index was calculated by dividing the severity of atopic dermatitis, which was divided into 6 categories of erythema, edema/papulation, oozing/crusts, excoriations, lichenification and skin dryness, by 0 to 3, summing up the calculated values, and adding the sum of the calculated values to ⅕ of the area of the lesions, and the subjective SCORAD index was obtained by setting each of pruritus and dyssomnia during waking hours to analog scales 0 to 10 (European Task Force on Atopic Dermatitis, 1993). […] Therefore, only the objective SCORAD index was evaluated in this Example.
The changes in the SCORAD indexes of the 10 patients were plotted on one graph.
Then, average lines plotted from the results of all the patients were drawn, and compared.
Another series deals with IgE. Description: Total serum IgE (ELISA). It counts as in vivo, mice. The following applies: administered alone, compared with the control. As to the method: Since the major symptoms of atopic dermatitis were associated with strong Th2 immune response, IgE was produced at an excessive amount. Therefore, either glucosamine or tacrolimus was administered alone to the atopy-induced mice, or glucosamine and tacrolimus were administered in combination to measure a level of IgE in the serum. After one week had elapsed after the final administration, sera were obtained from the mice, and a total level of IgE was measured using an ELISA kit (Yamasa, Tokyo, Japan).
(ELISA stands for enzyme-linked immunosorbent assay.)

For a further series, the system named is IFN-g, IL-4, IL-5. Description: Immunosuppressive effects of immunosuppressants administered alone (IFN-g, IL-4, IL-5 concentrations). In kind it is cell-based. The following applies: FIGS. 24 to 26. From the text: Further, immunosuppressive effects according to the kinds of immunosuppressants were further confirmed through experiments conducted to determine a proper dosage concentration.

The nature of series [3]: Minimum and maximum doses from experiments conducted at a cell level. The following applies: no difference in inhibition level. It counts as cell-based.

As to `N[C@H]1C(O)O[C@H](CO)[C@@H](O)[C@@H]1O` (stereo partly shown) [glucosamine], the “blood glucosamine concentrations, animals versus humans” value in series [1] is listed as “no significant difference”. Besides, the “change in SCORAD indexes” value in series [2] (glucosamine administered alone, November 10 to November 24) is given as “no change”. Besides, the “therapeutic effect (SCORAD indexes), summary” value in series [2] (single versus combined administration) is recorded as “poor therapeutic effect”. Besides, in the series with IgE, the “total level of IgE in the serum” value is “no clear difference”.
As for `C=CC[C@@H]1/C=C(\C)C[C@H](C)C[C@H](OC)[C@H]2O[C@@](O)(C(=O)C(=O)N3CCCC[C@H]3C(=O)O[C@H](/C(C)=C/[C@@H]3CC[C@@H](O)[C@H](OC)C3)[C@H](C)[C@@H](O)CC1=O)[C@H](C)C[C@@H]2OC` [tacrolimus], the “immunosuppressive effect (changes in concentrations of IFN-g, IL-4, IL-5)” value with IFN-g, IL-4, IL-5 is given as “suppressed an immune response”. The “dose required relative to cyclosporine” value in series [3] is recorded as “lower dose than cyclosporine by a factor of 10”. The “total level of IgE in the serum” value with IgE is “no clear difference”.
